Patent US4474967A, “8-Deutero and 8-tritio-substituted derivatives of D-4S-6-fluoro-spiro-[chroman-4,4'-imidazolidine]-2',5'-dione” (Pfizer Inc., priority 1983, dated 1984)

System: aldose reductase
Experiment: Inhibition of aldose reductase enzyme activity (S. Hayman et al., as modified by K. Sestanj et al.)
Assay type: biochemical
Details: partially purified aldose reductase enzyme from calf lens
Procedure: The following asymmetric spiro-hydantoin compounds of Examples 1 and 2, respectively, were tested at a concentration level of 10^-6 M for their ability to reduce or inhibit aldose reductase enzyme activity via the procedure of S. Hayman et al., as described in the Journal of Biological Chemistry, Vol. 240, p. 877(1965) and as modified by K. Sestanj et al. in U.S. Pat. No. 3,821,383. In each case, the substrate employed was partially purified aldose reductase enzyme obtained from calf lens.

Row | % Inhibition at 10^-6 M [%] | Structure (SMILES)
1 | 74 | O=C1NC(=O)[C@@]2(CCOc3c(F)cc(F)cc32)N1 [Product of Example 1, 4S-6,8-difluoro-spiro-[chroman-4,4'-imidazolidine]-2',5'-dione]
2 | 64 | O=C1NC(=O)[C@@]2(CCOc3c(Cl)cc(F)cc32)N1 [Product of Example 2, 4S-6-fluoro-8-chloro-spiro-[chroman-4,4'-imidazolidine]-2',5'-dione]
